Results: ChEMBL document CHEMBL1132911, “Cytotoxic halogenoacrylic derivatives of distamycin A” (Bioorg Med Chem Lett, 2000)

Key:
Mus musculus [1] = assay: In vivo antileukemic activity against L1210 murine leukemia in mice after iv administration of compound expressed as T/C ie median survival time of treated versus untreated mice (10); type: functional
Mus musculus [2] = assay: In vivo antileukemic activity against L1210 murine leukemia cell after intravenous administration in mice expressed as optimal (non toxic) dose; type: functional
L1210 [3] = assay: In vitro cytotoxicity was measured after 48 hr of exposure against L1210 murine leukemia cells; type: functional, cell-based; conditions: Mus musculus, L1210, 48 h
L1210 [4] = assay: In vitro cytotoxicity was measured after 4 hr of exposure against L1210 murine leukemia cells; type: functional, Mus musculus
Mus musculus [5] = assay: In vivo antileukemic activity against L1210 murine leukemia after intravenous administration in mice expressed as optimal (non toxic) dose; type: functional

| SMILES | T/C (Mus musculus [1]) | OD (Mus musculus [2]) | IC50 (L1210 [3]) | IPol (L1210 [4]) | further results |
| --- | --- | --- | --- | --- | --- |
| C=C(Br)C(=O)Nc1cc(C(=O)Nc2cc(C(=O)Nc3cc(C(=O)Nc4cc(C(=O)NCCC(=N)N)n(C)c4)n(C)c3)n(C)c2)n(C)c1.Cl | 200% | 1.56 mg/kg | – | – | – |
| C=C(Br)C(=O)Nc1cc(C(=O)NCCC(=N)N)n(C)c1 | – | – | > 13 µM | – | – |
| C=C(Br)CNc1cc(C(=O)Nc2cc(C(=O)Nc3cc(C(=O)NCCC(=N)N)n(C)c3)n(C)c2)n(C)c1 | – | – | > 1.6 µM | – | – |
| C=C(F)C(=O)Nc1cc(C(=O)Nc2cc(C(=O)Nc3cc(C(=O)NCCC(=N)N)n(C)c3)n(C)c2)n(C)c1 | – | – | > 0.8 µM | – | – |
| C=C(Br)C(=O)Nc1cc(C(=O)Nc2cc(C(=O)Nc3cc(C(=O)NCCC(=N)N)n(C)c3)n(C)c2)n(C)c1.Cl | 100% | – | – | 0.1035 µM | OD (Mus musculus [5]): 12.5 mg/kg |
| Cl.Cn1cc(NC(=O)c2cc(NC(=O)c3cc(NC(=O)/C=C/Cl)cn3C)cn2C)cc1C(=O)NCCC(=N)N | – | – | – | >100 µM | – |
| C=C(Cl)C(=O)Nc1cc(C(=O)Nc2cc(C(=O)Nc3cc(C(=O)NCCC(=N)N)n(C)c3)n(C)c2)n(C)c1.Cl | 117% | 12.5 mg/kg | – | 1.47 µM | – |
| C=C(Br)C(=O)Nc1cc(C(=O)Nc2cc(C(=O)NCCC(=N)N)n(C)c2)n(C)c1 | – | – | > 1.3 µM | – | – |
| C=C(F)C(=O)Nc1cc(C(=O)Nc2cc(C(=O)Nc3cc(C(=O)Nc4cc(C(=O)NCCC(=N)N)n(C)c4)n(C)c3)n(C)c2)n(C)c1 | – | – | > 0.7 µM | – | – |
| Cl.Cn1cc(NC(=O)c2cc(NC(=O)c3cc(NC(=O)/C=C\Cl)cn3C)cn2C)cc1C(=O)NCCC(=N)N | – | – | – | >50 µM | – |
| C=C(Br)C(=O)Nc1cc(C(=O)Nc2cc(C(=O)Nc3cc(C(=O)Nc4cc(C(=O)Nc5cc(C(=O)NCCC(=N)N)n(C)c5)n(C)c4)n(C)c3)n(C)c2)n(C)c1.Cl | 167% | 0.78 mg/kg | 0.023 µM | – | – |
| C=C(Cl)C(=O)Nc1cc(C(=O)Nc2cc(C(=O)Nc3cc(C(=O)Nc4cc(C(=O)NCCC(=N)N)n(C)c4)n(C)c3)n(C)c2)n(C)c1.Cl | 133% | 1.56 mg/kg | 0.0038 µM | – | – |
| C=CC(=O)Nc1cc(C(=O)Nc2cc(C(=O)Nc3cc(C(=O)NCCC(=N)N)n(C)c3)n(C)c2)n(C)c1.Cl | – | – | – | >50 µM | – |
